Assay results published in ChEMBL document CHEMBL4699428, “Anticancer potential of some imidazole and fused imidazole derivatives: exploring the mechanism via epidermal growth factor receptor (EGFR) inhibition” (RSC Med Chem, 2020).
The source made the active and inactive calls. The calls are words filed in the database; no cut-off is given here.

Experiments:
MDA-MB-231 [1] = assay: Antiproliferative activity against human MDA-MB-231 cells assessed as reduction in cell viability incubated for 48 hrs by MTT assay; type: functional, cell-based; settings: MDA-MB-231, 48 h
HT-29 = assay: Antiproliferative activity against human HT-29 cells assessed as reduction in cell viability incubated for 48 hrs by MTT assay; type: functional, cell-based; settings: HT-29, 48 h
A549 = assay: Antiproliferative activity against human A549 cells assessed as reduction in cell viability incubated for 48 hrs by MTT assay; type: functional, cell-based; settings: A549, 48 h
MCF7 = assay: Antiproliferative activity against human MCF-7 cells assessed as reduction in cell viability incubated for 48 hrs by MTT assay; type: functional, cell-based; settings: MCF7, 48 h
T47D = assay: Antiproliferative activity against human T47D cells assessed as reduction in cell viability incubated for 48 hrs by MTT assay; type: functional, cell-based
[2] = Cytotoxicity against human peripheral blood mononuclear cells assessed as reduction in cell survival at 10 uM incubated for 48 hrs by MTT assay; type: cell-based; settings: pbmc
HBL-100 [3] = assay: Cytotoxicity against human HBL-100 cells assessed as disruption of cell morphology at 10 uM; type: cell-based; settings: hbl-100, 10 µM
[4] = target: Epidermal growth factor receptor (Homo sapiens, UniProt P00533); assay: Inhibition of EGFR (unknown origin) using Tyrosine 4 peptide and ATP as substrate incubated for 1 hr by Z'-lyte kinase assay based […] method
Epidermal growth factor receptor, sequence (P00533 whole entry): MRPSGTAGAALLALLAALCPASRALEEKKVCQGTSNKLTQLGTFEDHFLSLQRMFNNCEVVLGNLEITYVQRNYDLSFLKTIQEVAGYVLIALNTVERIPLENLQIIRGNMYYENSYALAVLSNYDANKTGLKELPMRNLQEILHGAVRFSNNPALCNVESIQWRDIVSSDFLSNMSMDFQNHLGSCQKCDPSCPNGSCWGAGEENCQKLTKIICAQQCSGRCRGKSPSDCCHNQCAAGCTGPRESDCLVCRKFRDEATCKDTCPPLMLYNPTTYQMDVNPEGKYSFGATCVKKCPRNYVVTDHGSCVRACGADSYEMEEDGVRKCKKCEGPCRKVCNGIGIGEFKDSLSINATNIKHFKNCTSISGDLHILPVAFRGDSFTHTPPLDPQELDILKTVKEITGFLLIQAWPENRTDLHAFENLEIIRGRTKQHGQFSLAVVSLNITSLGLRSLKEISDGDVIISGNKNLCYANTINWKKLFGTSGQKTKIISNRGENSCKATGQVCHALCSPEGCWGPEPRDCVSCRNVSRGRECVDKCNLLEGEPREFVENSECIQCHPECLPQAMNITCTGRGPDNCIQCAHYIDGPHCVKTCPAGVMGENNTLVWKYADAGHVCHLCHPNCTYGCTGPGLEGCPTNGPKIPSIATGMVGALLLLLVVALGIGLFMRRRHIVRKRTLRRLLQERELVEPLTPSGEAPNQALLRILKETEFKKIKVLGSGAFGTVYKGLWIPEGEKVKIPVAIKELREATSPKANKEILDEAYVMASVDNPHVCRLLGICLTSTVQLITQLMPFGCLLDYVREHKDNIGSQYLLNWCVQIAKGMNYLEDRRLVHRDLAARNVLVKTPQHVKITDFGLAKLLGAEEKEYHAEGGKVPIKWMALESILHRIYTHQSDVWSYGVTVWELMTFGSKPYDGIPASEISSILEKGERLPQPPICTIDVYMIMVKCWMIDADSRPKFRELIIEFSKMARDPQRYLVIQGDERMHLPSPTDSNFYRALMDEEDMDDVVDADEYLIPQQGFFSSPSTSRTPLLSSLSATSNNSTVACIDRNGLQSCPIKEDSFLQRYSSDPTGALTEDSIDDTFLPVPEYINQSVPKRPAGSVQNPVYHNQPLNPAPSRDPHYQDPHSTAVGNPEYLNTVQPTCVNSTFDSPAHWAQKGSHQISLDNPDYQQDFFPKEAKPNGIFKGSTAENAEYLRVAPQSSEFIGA

HBL-100 [5] = assay: Cytotoxicity against human HBL-100 cells assessed as reduction in cell survival at 10 uM incubated for 48 hrs by MTT assay; type: cell-based; settings: hbl-100, 48 h
MDA-MB-231 [6] = assay: Induction of mitochondrial membrane potential depolarization in human MDA-MB-231 cells assessed as […] fluorescence to green fluorescence ratio at sub-IC50 concentration incubated for 48 hrs by JC1 staining based flow cytometry; type: functional, cell-based
MDA-MB-231 [7] = assay: Induction of reactive oxygen species generation in human MDA-MB-231 cells assessed as increase in intracellular ROS level at sub-IC50 concentration incubated for 48 hrs by H2DCFDA staining based flow cytometry; type: functional, cell-based

Row | IC50 (MDA-MB-231 [1]) [µM] | IC50 (HT-29) [µM] | IC50 (A549) [µM] | IC50 (MCF7) [µM] | IC50 (T47D) [µM] | IC50 [4] [nM] | Structure (SMILES) | Activity [2] | Activity (HBL-100 [3]) | Activity (HBL-100 [5]) | Activity (MDA-MB-231 [6]) | Activity (MDA-MB-231 [7])
1 | 17.2 | 15.3 | 17.2 | 9.99 | 15.3 |  | N#Cc1ncn(-c2ccc(F)cc2)c1/N=C/c1cc([N+](=O)[O-])ccc1O |  |  |  |  | 
2 | 21.4 | 19.9 | > 25 | 7.85 | 19.9 |  | COc1ccc(/C=N/c2c(C#N)ncn2-c2ccc(F)cc2)cc1O |  |  |  |  | 
3 | 8.67 | 2.37 | 2.29 | 7.46 | 10.7 |  | COc1cc(C2N=C(C(N)=O)c3ncn(-c4ccc(F)cc4)c3N2)cc(OC)c1OC (centres undefined) | Toxic |  |  |  | 
4 | 18.7 | 13.7 | 9.88 | 8.32 | 13.7 |  | COc1cc(/C=N/c2c(C#N)ncn2-c2ccc(F)cc2)cc(OC)c1OC |  |  |  |  | 
5 | > 25 | > 25 | 24.3 | 12.6 | > 25 |  | COc1ccc(/C=N/c2c(C#N)ncn2Cc2ccc(F)cc2)c(OC)c1OC |  |  |  |  | 
6 | 16.1 | 21.5 | 10.9 | 11.3 | 21.5 |  | COc1cc(/C=N/c2c(C#N)ncn2Cc2ccc(F)cc2)ccc1O |  |  |  |  | 
7 | 10.5 | 13.8 | 9.13 | 11.1 | 8.2 |  | COc1ccc(/C=N/c2c(C#N)ncn2Cc2ccc(F)cc2)cc1OC |  |  |  |  | 
8 | 17.6 | 22.4 | 13.1 | 10.9 | 22.4 |  | COc1ccc(OC)c(/C=N/c2c(C#N)ncn2Cc2ccc(F)cc2)c1 |  |  |  |  | 
9 | 17.1 | 19.4 | 17.1 | 9.33 | 19.4 |  | COc1ccc(/C=N/c2c(C#N)ncn2-c2ccc(F)cc2)cc1 |  |  |  |  | 
10 | 2.87 | 9.19 | 4.62 | 3.87 | 9.19 |  | COc1ccc(/C=N/c2c(C#N)ncn2Cc2ccc(F)cc2)cc1 | Non-Toxic | Toxic |  |  | 
11 | 16.3 | 20.4 | 16.3 | 11.5 | 20.4 |  | N#Cc1ncn(-c2ccc(F)cc2)c1/N=C/c1ccc(O)cc1 |  |  |  |  | 
12 | 6.76 | 3.29 | 2.29 | 5.71 | 9.96 | 617 | COc1ccc(C2N=C(C(N)=O)c3ncn(-c4ccc(F)cc4)c3N2)cc1OC (centres undefined) | Non-Toxic | Non-Toxic | Non-Toxic |  | 
13 | 13.4 | 15.9 | 18.1 | 9.1 | 15.9 |  | N#Cc1ncn(-c2ccc(F)cc2)c1/N=C/c1ccc([N+](=O)[O-])cc1 |  |  |  |  | 
14 | 20.4 | > 25 | 14.7 | 9.87 | > 25 |  | CC(C)c1ccc(/C=N/c2c(C#N)ncn2-c2ccc(F)cc2)cc1 |  |  |  |  | 
15 | 4.27 | 7.23 | 2.96 | 14.7 | 7.23 |  | COc1ccc(/C=N/c2c(C#N)ncn2-c2ccc(F)cc2)cc1OC | Toxic |  |  |  | 
16 | 2.87 | 16.5 | 9.71 | 9.04 | 17.5 |  | COc1cc(/C=N/c2c(C#N)ncn2Cc2ccc(F)cc2)cc(OC)c1OC | Toxic |  |  |  | 
17 | 12.3 | 16.3 | 9.28 | 7.09 | 16.3 |  | COc1ccc(OC)c(/C=N/c2c(C#N)ncn2-c2ccc(F)cc2)c1 |  |  |  |  | 
18 | 13.6 | 20.1 | 13.6 | 9.99 | 20.1 |  | COc1cc(/C=N/c2c(C#N)ncn2-c2ccc(F)cc2)ccc1O |  |  |  |  | 
19 | 3.44 | 5.72 | 2.02 | 10.6 | 5.72 |  | N#Cc1ncn(Cc2ccc(F)cc2)c1/N=C/c1ccc([N+](=O)[O-])cc1 | Toxic |  |  |  | 
20 | 2.67 | 6.14 | 1.32 | 4.53 | 6.14 |  | COc1ccc(/C=N/c2c(C#N)ncn2Cc2ccc(F)cc2)cc1O | Non-Toxic | Toxic |  |  | 
21 |  |  |  |  |  |  | COc1ccc(C2N=C(C(N)=O)c3ncn(-c4ccc(N5CCN(C)CC5)c([N+](=O)[O-])c4)c3N2)cc1OC (centres undefined) |  |  |  | Active | Active
